pIC50: −log10 of the molar value. Counter-ions that a name gives are not always drawn.
Assays:
[1] = molecular target: T1, UGT8 (Homo sapiens, UniProt Q16880); assay: In vitro sulfatide (SFT) synthesis inhibition in OE19 cells, LC-MS/MS readout; assay type: cell-based; conditions: 72 hr, sulfatide by LC-MS/MS, read-out: Potency range (IC50, In-vitro SFT)
T1 construct: host or cells: OE19 cells
T1 sequence (Q16880 21-541): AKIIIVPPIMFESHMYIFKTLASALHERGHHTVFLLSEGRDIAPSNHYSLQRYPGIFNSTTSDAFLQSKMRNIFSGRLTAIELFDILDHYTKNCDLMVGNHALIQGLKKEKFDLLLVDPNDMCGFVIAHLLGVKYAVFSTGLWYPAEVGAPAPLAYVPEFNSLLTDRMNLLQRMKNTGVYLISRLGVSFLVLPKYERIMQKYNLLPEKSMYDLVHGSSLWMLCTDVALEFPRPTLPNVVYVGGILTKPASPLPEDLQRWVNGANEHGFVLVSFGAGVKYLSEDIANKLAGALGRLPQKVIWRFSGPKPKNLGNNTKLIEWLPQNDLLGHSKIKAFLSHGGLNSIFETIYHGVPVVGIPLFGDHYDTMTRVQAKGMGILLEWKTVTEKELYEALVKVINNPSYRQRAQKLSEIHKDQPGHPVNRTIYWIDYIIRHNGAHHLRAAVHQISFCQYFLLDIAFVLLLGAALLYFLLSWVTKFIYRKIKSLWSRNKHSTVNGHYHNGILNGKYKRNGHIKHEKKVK
Summary of the method: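 OE19 cells, 2,500/well, exposed to compound dose-downs in triplicate for 72 hr at 37° C (screening at 10 μM final). Sulfatide quantified by LC-MS/MS (C8 UPLC, isocratic, negative-ion MRM) with C17 SFT internal standard; IC50 from concentration-response curves.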

[2] = molecular target: T2, UGT8 (Mus musculus, UniProt Q64676); assay: Acute in vivo target engagement in mouse kidney: inhibition of de novo GalCer and SFT synthesis (13C-Gal incorporation); conditions: 5 hr
T2 construct: Groups of 5 male C57Bl/6 mice, 6-9 wks of age (Charles River Laboratories); tissue Charles River Laboratories; host or cells: mouse kidney (adult C57Bl/6) and mid-/hind brain (neonatal P14-P21 mice)
T2 sequence (Q64676 21-541): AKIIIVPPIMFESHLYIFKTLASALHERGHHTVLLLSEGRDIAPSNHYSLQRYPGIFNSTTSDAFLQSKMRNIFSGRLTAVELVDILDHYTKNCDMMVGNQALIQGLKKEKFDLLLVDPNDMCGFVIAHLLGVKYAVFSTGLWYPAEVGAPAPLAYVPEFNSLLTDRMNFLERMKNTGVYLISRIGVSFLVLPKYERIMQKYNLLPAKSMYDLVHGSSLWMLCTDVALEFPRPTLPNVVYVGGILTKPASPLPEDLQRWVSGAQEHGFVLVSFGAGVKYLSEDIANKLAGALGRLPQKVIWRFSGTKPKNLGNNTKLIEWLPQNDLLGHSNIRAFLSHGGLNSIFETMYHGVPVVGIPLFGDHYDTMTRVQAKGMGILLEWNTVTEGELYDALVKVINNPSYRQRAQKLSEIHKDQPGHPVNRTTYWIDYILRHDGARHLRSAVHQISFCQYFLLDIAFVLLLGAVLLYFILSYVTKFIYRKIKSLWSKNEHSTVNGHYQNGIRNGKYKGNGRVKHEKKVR
Description: In vivo target engagement was initially assessed in an adult mouse kidney model assessing de novo synthesis inhibition. This model was selected because the high rate of GalCer and SFT synthesis and turnover in kidney facilitated development of an acute one-day model assessing the effect of a single administration of compound at different doses. Inhibition of de novo synthesis was determined by measuring the amount of 13C6 galactose (13C-Gal; CIL, cat #CLM-1570-pk) incorporated into GalCer and SFT.
Groups of 5 male C57Bl/6 mice, 6-9 wks of age (Charles River Laboratories) were maintained in an ALAAC-accredited vivarium with food and water ad libitum and were allowed to acclimate one week before initiating studies. Three to 5 dose groups received test article formulated in a clinically-acceptable formulation, administered by oral gavage; the control group received vehicle alone. One hr after administration of test article, animals received an intraperitoneal (i.p.) injection of 13C-Gal (3 g/kg); 5 hr after administration of test article, animals were euthanized and a kidney was removed and divided into two longitudinal samples that were snap-frozen and stored at −80° C. until processing for test article tissue exposure and lipid analysis (GalCer and SFT). Typically, brain and plasma samples were also collected for test article exposure.
(§1) Mass Spectrometer Analysis of SFT
(§2) Quantitative analysis of sphingolipids (SLs) was performed using liquid chromatography with tandem mass spectrometry analysis (LC-MS/MS). Briefly, to extract glucosylceramide (GlcCer), galactosylceramide (GalCer), and sulfatide (ST), an aliquot of 10 μL of mouse tissue homogenate (100 mg/ml in water) was mixed with 1 mL of extraction solution (0.2% Formic Acid; 5 mM Ammonium formate in (50:50) Methanol:Acetonitrile (v/v) with internal standards (IS)). C17-ST and D35 labeled C18-GalCer were used for IS. The mixtures were vortexed and centrifuged. The resulting supernatants were transferred to HPLC vials for LC-MS/MS analysis. GlcCer and GalCer were separated using a Waters Acquity UPLC and Atlantis HILIC Silica column (2.1 mm×150 mm, […], Waters Corp., Milford, Mass.) and analyzed by an API 5000 triple quadrupole mass spectrometer in MRM mode (Applied Biosystems, Foster City, Calif.). ST were analyzed using a Waters Acquity UPLC and BEH C18 column (2.1 mm×50 mm, […], Waters Corp., Milford, Mass.) and analyzed by an API 6500 triple quadrupole mass spectrometer in MRM mode (Applied Biosystems, Foster City, Calif.).

[3] = molecular target: T2, UGT8; assay: Acute in vivo target engagement in neonatal mouse brain: inhibition of de novo GalCer and SFT synthesis (13C-Gal incorporation); conditions: neonatal mouse (P14-P21) brain, 5 hr
Description: SFT biosynthesis and turnover in the myelin of adult mice is very low, necessitating development of a short-term acute model of de novo synthesis inhibition. To do this, we took advantage of the fact that unlike primates in which most developmental myelination occurs in utero, in rodents, peak myelination occurs between postnatal day 14 (P14) and P22.
Groups of 5 neonatal mice age-matched between P14 and P21 received test article formulated in a clinically-acceptable formulation, administered by oral gavage; the control group received vehicle alone. One hr after administration of test article, animals received an i.p. injection of 13C-Gal (3 g/kg); 5 hr after administration of test article, animals were euthanized, brains were removed and dissected for recovery of mid- and hind brain which was snap-frozen and stored at −80° C. until analysis. Plasma samples were also collected for test article exposure analysis.
as §1, §2

pIC50 [1]	kidney GalCer % inh ([2]; single oral dose 1 mg/kg)	kidney Sulfatide % inh ([2]; single oral dose 1 mg/kg)	kidney GalCer % inh ([2]; single oral dose 3 mg/kg)	kidney Sulfatide % inh ([2]; single oral dose 3 mg/kg)	kidney GalCer % inh ([2]; single oral dose 10 mg/kg)	kidney Sulfatide % inh ([2]; single oral dose 10 mg/kg)	brain GalCer % inh ([3]; single oral dose 10 mg/kg)	brain Sulfatide % inh ([3]; single oral dose 10 mg/kg)	brain GalCer % inh ([3]; single oral dose 30 mg/kg)	brain Sulfatide % inh ([3]; single oral dose 30 mg/kg)	Compound	further results
> 7.00	C (C < 40%)	C (C < 40%)	B (40% < B < 80%)	B (40% < B < 80%)	B (40% < B < 80%)	B (40% < B < 80%)	A (A > 80%)	A (A > 80%)	A (A > 80%)	A (A > 80%)	CNC(=O)c1csc2c(C(F)(F)F)cc(N3CCC(OC(=O)NC(C)C)CC3)nc12 [Example 76, 1-(3-(Methylcarbamoyl)-7-(trifluoromethyl)thieno[3,2-b]pyridin-5-yl)piperidin-4-yl isopropylcarbamate]	brain GalCer % inh ([3]; single oral dose 3 mg/kg): B (40% < B < 80%); brain Sulfatide % inh ([3]; single oral dose 3 mg/kg): B (40% < B < 80%)
> 7.00	C (C < 40%)	B (40% < B < 80%)	A (A > 80%)	A (A > 80%)	A (A > 80%)	A (A > 80%)	A, A, A (A > 80%)	A, A, A (A > 80%)	A, A, A (A > 80%)	A, A, A (A > 80%)	CNC(=O)c1csc2c(C(F)(F)F)cc(N3CCC(OC(=O)N[C@@H](C)COC(F)(F)F)CC3)nc12 [Example 90, 1-(3-(Methylcarbamoyl)-7-(trifluoromethyl)thieno[3,2-b]pyridin-5-yl)piperidin-4-yl (S)-(1-(trifluoromethoxy)propan-2-yl)carbamate]	kidney GalCer % inh ([2]; single oral dose 0.3 mg/kg): C (C < 40%); kidney Sulfatide % inh ([2]; single oral dose 0.3 mg/kg): C (C < 40%); kidney GalCer % inh ([2]; single oral dose 30 mg/kg): A (A > 80%); kidney Sulfatide % inh ([2]; single oral dose 30 mg/kg): A (A > 80%); brain GalCer % inh ([3]; single oral dose 3 mg/kg): A, A, A (A > 80%); brain Sulfatide % inh ([3]; single oral dose 3 mg/kg): A, A, A (A > 80%)
> 7.00	–	–	–	–	B (40% < B < 80%)	–	B, B, B (40% < B < 80%)	A, A, A (A > 80%)	B, B, B (40% < B < 80%)	A, A, A (A > 80%)	CNC(=O)c1csc2c(C(F)(F)F)cc(N3CCC(OC(=O)N[C@@H](C)C4CC4)CC3)nc12 [Example 109, 1-(3-(Methylcarbamoyl)-7-(trifluoromethyl)thieno[3,2-b]pyridin-5-yl)piperidin-4-yl (S)-(1-cyclopropylethyl)carbamate]	kidney GalCer % inh ([2]; single oral dose 5 mg/kg): C (C < 40%); kidney GalCer % inh ([2]; single oral dose 50 mg/kg): A (A > 80%); brain GalCer % inh ([3]; single oral dose 100 mg/kg): B, B, B (40% < B < 80%); brain Sulfatide % inh ([3]; single oral dose 100 mg/kg): A, A, A (A > 80%)
–	–	–	C (C < 40%)	–	B (40% < B < 80%)	–	–	–	–	–	CNC(=O)c1csc2c(C(F)(F)F)cc(N3CCC(OC(=O)NCC4CC4)CC3)nc12 [Example 475, 1-(3-(Methylcarbamoyl)-7-(trifluoromethyl)thieno[3,2-b]pyridin-5-yl)piperidin-4-yl (cyclopropylmethyl)carbamate trifluoroacetate]	kidney GalCer % inh ([2]; single oral dose 50 mg/kg): B (40% < B < 80%)
> 7.00	–	–	–	–	A, A, A (A > 80%)	A, A, A (A > 80%)	–	–	–	–	CNC(=O)c1csc2c(C(F)(F)F)cc(N3CC[C@H](OC(=O)NC(C)C)[C@@H](F)C3)nc12 [Example 496, (3S,4S)-3-Fluoro-1-(3-(methylcarbamoyl)-7-(trifluoromethyl)thieno[3,2-b]pyridin-5-yl)piperidin-4-yl isopropylcarbamate]	kidney GalCer % inh ([2]; single oral dose 30 mg/kg): A, A, A (A > 80%); kidney Sulfatide % inh ([2]; single oral dose 30 mg/kg): A, A, A (A > 80%); kidney GalCer % inh ([2]; single oral dose 100 mg/kg): A, A, A (A > 80%); kidney Sulfatide % inh ([2]; single oral dose 100 mg/kg): A, A, A (A > 80%)
> 7.00	C (C < 40%)	C (C < 40%)	C (C < 40%)	C (C < 40%)	B (40% < B < 80%)	A (A > 80%)	–	–	–	–	CNC(=O)c1csc2c(C(F)(F)F)cc(N3CCC(OC(=O)N[C@@H](C)CF)CC3)nc12 [Example 693, [1-[3-(Methylcarbamoyl)-7-(trifluoromethyl)thieno[3,2-b]pyridin-5-yl]-4-piperidyl] N-[(1S)-2-fluoro-1-methyl-ethyl]carbamate]	–
> 7.00	–	–	–	–	–	–	–	–	–	–	CNC(=O)c1csc2c(C(F)(F)F)c(C)c(O[C@@H]3CCN(C(=O)O[C@@H](C)C4CC4)[C@H](C)C3)nc12 [Example 866, (S)-1-Cyclopropylethyl (2R,4R)-2-methyl-4-((6-methyl-3-(methylcarbamoyl)-7-(trifluoromethyl)thieno[3,2-b]pyridin-5-yl)oxy)piperidine-1-carboxylate]	–

Reference: patent publication US11098056B2, “UDP glycosyltransferase inhibitors and methods of use” (GENZYME CORPORATION, priority 2018, dated 2021)
